Experimental data taken from article PMC10667816, “A Cell‐Penetrant Peptide Disrupting the Transcription Factor CP2c Complexes Induces Cancer‐Specific Synthetic Lethality” (Advanced Science, 2023).
Where a SMILES comes first, the peptide text is derived from it.

Key:
[1] = tested on: cisplatin‐resistant cancer cells; experiment: Growth inhibition in cisplatin‐resistant cancer cells; type: cell-based, human; conditions: cisplatin‐resistant variants of Hep3B, HCT116, MDA‐MB‐231
Experimental: Information of the cell lines is listed in Table S1 (Supporting Information), including their origin and culture conditions. All cell lines were cultured at 37 °C, 5% CO2 incubator. MDA‐MB‐231 (LM1), HepG2, Hep3B, and HCT116 cell lines were authenticated with short tandem repeat markers based on ATCC information. All cell lines tested negative for mycoplasma contamination. Transient downregulation of the gene of interest was conducted by siRNA transfection using Lipofectamine 2000 (Thermo Fisher, 11668019) according to the manufacturer's instructions. Information about siRNAs is provided in Table S2 (Supporting Information). […] For erythroid terminal differentiation experiments, differentiation was assessed by hemoglobin staining using a 0.2% (w/v) tetramethylbenzidine solution (Sigma–Aldrich, T0440) in 0.6% hydrogen peroxide, 3% acetic acid for 10 min in dark condition. Benzidine‐positive or negative cell numbers were counted under the inverted microscope BX50 (Olympus) at 200 × magnification. […] After each synchronization, cells were fixed at 4‐h intervals for 24 h with ACP52C treatment, and the cell cycle was analyzed by Propidium Iodide (PI) staining or intracellular protein was analyzed by immunofluorescence. […] This development period was repeated four times for one round, after which GI50 concentrations were re‐assessed in each resistant cell line. […]

[2] = In vivo metabolic stability test by live imaging; parameters: species or system mouse; conditions: Hep3B CDX Balb/c nude mice, intravenous Cy5‐ACP52C 17 mg kg^−1, live imaging fluorescence over 24 h
Description: (1 picture or pasted object on this page, not shown here)
Scale bar represents 10 μm.

CP2c = target: T1, CP2c (Mus musculus, UniProt Q9ERA0); experiment: DNA‐IP assay of CP2c DNA binding; type: biochemical; conditions: 0–3 µM peptide, concentration‐dependent
T1 construct: extracts from iMEL cells (day 2); endogenous in cells; host or cells: nuclear extract of HMBA-induced MEL (iMEL) cells, day 2
T1 sequence (Q9ERA0 whole entry): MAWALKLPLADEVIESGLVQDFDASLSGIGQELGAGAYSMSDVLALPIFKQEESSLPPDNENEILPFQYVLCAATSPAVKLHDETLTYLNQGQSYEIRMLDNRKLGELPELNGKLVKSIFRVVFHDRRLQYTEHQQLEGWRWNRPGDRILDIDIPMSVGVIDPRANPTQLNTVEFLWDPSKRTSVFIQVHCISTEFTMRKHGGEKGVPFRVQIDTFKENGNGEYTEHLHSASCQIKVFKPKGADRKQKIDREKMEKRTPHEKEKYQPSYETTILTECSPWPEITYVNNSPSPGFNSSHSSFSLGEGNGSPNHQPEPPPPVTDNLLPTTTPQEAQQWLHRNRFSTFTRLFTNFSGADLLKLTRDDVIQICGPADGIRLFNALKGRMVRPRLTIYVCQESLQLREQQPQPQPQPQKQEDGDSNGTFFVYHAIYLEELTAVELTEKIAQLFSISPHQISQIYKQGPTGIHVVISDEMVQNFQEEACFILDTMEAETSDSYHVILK
Experimental: DNA‐IP assay was performed essentially as described previously.^[ [14] ^] Each of the oligonucleotides was mixed and annealed in the TEN buffer. For the radio‐labeling of the DNA probe, the annealed DNA was incubated with a mixture of dATP, dGTP, dTTP, [α^32P]‐dCTP, and Klenow enzyme in reaction buffer (5 mM NaCl, 1 mM Tris HCl, 1 mM MgCl2, and 0.1 mM DTT) for 30 min at 25 °C, and stopped by incubation with EDTA (10 mM final) for 20 min at 75 °C. The radio‐labeled DNA probe was purified by applying the reaction mixture to ProbeQuant G‐50 micro columns (GE healthcare, GE28‐9034‐08). Whole extracts prepared from transfecting 293T cells or purified GST fused CP2c proteins (wildtype and point mutants) were incubated with a [α^32P]‐labeled DNA probe in binding buffer (4% glycerol, 10 mM Tris‐HCl, pH 7.4, 1 mM DTT, 1 mM EDTA, and 0.1% NP‐40) for 15 min at room temperature. Then 0–3 µM of peptides (Pep #5, Pep #8, Pep #5‐1, Pep #5‐2, and Pep #5‐2C) were added to the DNA‐protein mixture, and the mixtures were incubated for 15 min at room temperature (peptide sequences are listed in Table S3, Supporting Information). For IP, precleared extracts were incubated overnight at 4 °C with 1 µg of the following primary antibodies (CP2c, CP2b, and PIAS1). […] The radioactivity of the eluted probe was measured by scintillation counting.

Row | Structure (SMILES) | anticancer activity in cisplatin‐resistant cells [1] | systemic metabolic stability in vivo (RL50, time for 50% retention of fluorescence) [2] | inhibition of DNA binding activity of CP2c (CP2c)
1 | CC(=O)N[C@@H](CC(N)=O)C(=O)N[C@@H](Cc1ccc(O)cc1)C(=O)N1CCC[C@H]1C(=O)N[C@@H](CCC(N)=O)C(=O)N[C@@H](CCCNC(=N)N)C(=O)N1CCC[C@H]1C(=O)N[C@@H](CS)C(=O)N[C@@H](CCCNC(=N)N)C(=O)NCC(=O)N[C@@H](CC(=O)O)C(=O)N[C@@H](CCCCN)C(=O)NCC(=O)N1CCC[C@H]1C(=O)N[C@@H](CC(=O)O)C(=O)N[C@@H](CS)C(N)=O [ACP52C] (Ac-NYPQRPCRGDKGPDC-NH2) | effectiveness in targeting cisplatin‐resistant cancer cells | ≈ 7.8 h | –
2 | CCOc1ccccc1C1CC(=O)Nc2cc3c(cc21)OCO3 (stereo not drawn) [FQI1, Factor Quinolinone Inhibitor 1, reference compound] | – | – | proficient inhibition of DNA binding
